Entries after “also recorded” stand apart in the source; their conditions may differ. Positions of bridges follow the written chain, without caps; N, C: chain ends. Non-standard residues stand in square brackets, D forms with d. No end group written: not given here. pGlu = O=C1CC[C@@H](C(=O)O)N1

This is an account of results in PMC8921975 (Journal of the American Chemical Society, 2020).

Test [1] concerns N-terminal truncated form of TDP1 (Δ147TDP1). Type of test: biochemical, human. Particulars: N-terminally truncated TDP1 lacking regulatory domain (Δ1–147); FRET assay, PBS pH 7.4, 80 mM KCl, 1 mM TCEP.
Another test addresses full-length TDP1 (Homo sapiens, UniProt Q9NUW8). The test can be described thus: Steady-state. The class given is biochemical.
The next test concerns TDP1. The test can be described thus: TDP1 inhibitory activity of Axinella-derived peptides. The class given is biochemical. The following applies: Figure S2.
Setting [2] is: full-length TDP1 0.5 nM, 0.01–3 μM FRET substrate, recifin A 0, 0.2, 0.5, 1, 2 μM, PBS pH 7.4, 80 mM KCl, 1 mM TCEP, quadruplicate, 1 h.
The mark [3] stands for this setting: full-length TDP1, Figure S10 (Km and Vmax ratios).

full-length TDP1, sequence (Q9NUW8 whole entry): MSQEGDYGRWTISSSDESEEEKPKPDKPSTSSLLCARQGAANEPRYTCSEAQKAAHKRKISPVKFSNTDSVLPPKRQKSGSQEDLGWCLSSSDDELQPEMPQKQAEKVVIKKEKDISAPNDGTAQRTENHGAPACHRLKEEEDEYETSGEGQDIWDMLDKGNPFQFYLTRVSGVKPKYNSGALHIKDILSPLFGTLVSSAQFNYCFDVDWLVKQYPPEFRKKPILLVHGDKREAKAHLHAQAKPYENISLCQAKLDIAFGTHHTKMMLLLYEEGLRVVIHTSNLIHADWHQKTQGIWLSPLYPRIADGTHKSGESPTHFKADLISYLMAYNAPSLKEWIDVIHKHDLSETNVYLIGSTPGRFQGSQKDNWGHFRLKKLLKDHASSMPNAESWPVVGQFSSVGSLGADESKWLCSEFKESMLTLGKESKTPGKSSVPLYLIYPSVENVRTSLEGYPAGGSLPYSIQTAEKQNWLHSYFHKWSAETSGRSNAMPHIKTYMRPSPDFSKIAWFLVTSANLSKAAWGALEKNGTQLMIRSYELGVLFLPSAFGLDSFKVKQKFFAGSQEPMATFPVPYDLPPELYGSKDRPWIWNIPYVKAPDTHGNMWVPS

As for “[pGlu]EAFCYSDRFCQNYIGSIPDCCFGRGSYSFELQPPPWECYQC (disulfide 5-21, 11-39, 22-42) [recifin A]”, in test [1], the “inhibition of Δ147TDP1 enzymatic activity (in words)” value was “not affecting the activity of a truncated catalytic domain of TDP1; also recorded: only a minimal effect; also recorded: inhibited full-length TDP1 but not N-terminally truncated TDP1 (Δ147TDP1); also recorded: does not affect the enzymatic activity of truncated TDP1; also recorded: unaffected by recifin A”. On full-length TDP1 (setting [2]), the “Km for the substrate, effect of recifin A (in words)” value is reported as “increased the Km for the substrate” and the “Vmax, effect of recifin A (in words)” value is given as “modest increase of the observed Vmax value; also recorded: increased the Vmax of the enzyme”. At full-length TDP1 (setting [3]), the “recifin A-dependent increase in the Km for the substrate” value is on record as “approximately 6 fold” and the “recifin A-dependent increase of observed Vmax” value is “approximately 1.6 fold”. For the same substance, the “TDP1 inhibitory activity relative to the other Axinella peptides” value in the test with TDP1 was “most active peptide”.
